From publication PMC9611727, “Optimization of a Novel Mandelamide-Derived Pyrrolopyrimidine Series of PERK Inhibitors” (Pharmaceutics, 2022)

Tests used:
Assay in all cases: scanMAX kinase panel
Assay type in all cases: binding
EIF2AK1 = biological target: T1, EIF2AK1 (Homo sapiens, UniProt Q9BQI3); conditions: read-out: % Control; for remaining binding at 1 µM: 1000 nM
T1 construct: purchased DiscoverX scanMAX
From the text: (§1) Supplemental Table S2. scanMAXSM Kinome Assay Results. Complete tabulated data of all 468 kinases from the panel, including
(§2) 403 wild-type and 65 mutant isoforms. […] Cmpd 11 and Cmpd 24

FLT3(ITD) = system: FLT3(ITD)
From the text: as §1, §2

FLT3(ITD,D835V) = system: FLT3(ITD,D835V)
From the text: as §1, §2

FLT3(K663Q) = biological target: T2, FLT3(K663Q) (Homo sapiens, UniProt P36888, K663Q); conditions: read-out: % Control; for remaining binding at 1 µM: 1000 nM
T2 construct: purchased DiscoverX scanMAX
T2 sequence (P36888 27-993 K663Q): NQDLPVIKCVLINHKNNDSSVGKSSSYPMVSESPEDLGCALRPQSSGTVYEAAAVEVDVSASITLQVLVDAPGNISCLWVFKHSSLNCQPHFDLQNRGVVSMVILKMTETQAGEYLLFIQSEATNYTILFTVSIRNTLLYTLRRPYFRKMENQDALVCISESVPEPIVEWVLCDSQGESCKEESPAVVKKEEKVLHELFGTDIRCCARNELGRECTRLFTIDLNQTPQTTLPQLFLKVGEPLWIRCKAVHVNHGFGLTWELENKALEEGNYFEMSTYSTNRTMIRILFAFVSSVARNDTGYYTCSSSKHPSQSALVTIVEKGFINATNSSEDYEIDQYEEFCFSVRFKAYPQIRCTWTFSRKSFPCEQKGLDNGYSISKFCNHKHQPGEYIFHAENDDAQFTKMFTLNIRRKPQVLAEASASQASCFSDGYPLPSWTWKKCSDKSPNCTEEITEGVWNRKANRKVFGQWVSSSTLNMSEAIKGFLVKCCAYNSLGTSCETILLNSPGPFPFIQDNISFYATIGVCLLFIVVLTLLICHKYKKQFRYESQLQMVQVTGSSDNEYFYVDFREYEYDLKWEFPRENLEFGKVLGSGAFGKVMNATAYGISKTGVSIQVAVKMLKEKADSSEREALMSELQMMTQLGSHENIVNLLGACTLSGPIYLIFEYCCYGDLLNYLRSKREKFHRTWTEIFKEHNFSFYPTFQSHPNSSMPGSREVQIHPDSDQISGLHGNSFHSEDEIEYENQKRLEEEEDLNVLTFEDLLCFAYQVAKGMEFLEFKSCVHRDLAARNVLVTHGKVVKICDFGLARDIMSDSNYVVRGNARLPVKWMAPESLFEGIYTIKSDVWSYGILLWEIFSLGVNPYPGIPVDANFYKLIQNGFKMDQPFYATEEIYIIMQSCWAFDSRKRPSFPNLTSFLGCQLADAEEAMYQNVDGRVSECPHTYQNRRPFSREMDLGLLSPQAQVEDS
From the text: as §1, §2

KIT(L576P) = biological target: T3, KIT(L576P) (Homo sapiens, UniProt P10721, L576P); conditions: read-out: % Control; for remaining binding at 1 µM: 1000 nM
T3 construct: purchased DiscoverX scanMAX
From the text: as §1, §2

MAP3K2 = biological target: T4, MAP3K2 (Homo sapiens, UniProt Q9Y2U5); conditions: read-out: % Control; for remaining binding at 1 µM: 1000 nM
T4 construct: purchased DiscoverX scanMAX
T4 sequence (Q9Y2U5 1-619): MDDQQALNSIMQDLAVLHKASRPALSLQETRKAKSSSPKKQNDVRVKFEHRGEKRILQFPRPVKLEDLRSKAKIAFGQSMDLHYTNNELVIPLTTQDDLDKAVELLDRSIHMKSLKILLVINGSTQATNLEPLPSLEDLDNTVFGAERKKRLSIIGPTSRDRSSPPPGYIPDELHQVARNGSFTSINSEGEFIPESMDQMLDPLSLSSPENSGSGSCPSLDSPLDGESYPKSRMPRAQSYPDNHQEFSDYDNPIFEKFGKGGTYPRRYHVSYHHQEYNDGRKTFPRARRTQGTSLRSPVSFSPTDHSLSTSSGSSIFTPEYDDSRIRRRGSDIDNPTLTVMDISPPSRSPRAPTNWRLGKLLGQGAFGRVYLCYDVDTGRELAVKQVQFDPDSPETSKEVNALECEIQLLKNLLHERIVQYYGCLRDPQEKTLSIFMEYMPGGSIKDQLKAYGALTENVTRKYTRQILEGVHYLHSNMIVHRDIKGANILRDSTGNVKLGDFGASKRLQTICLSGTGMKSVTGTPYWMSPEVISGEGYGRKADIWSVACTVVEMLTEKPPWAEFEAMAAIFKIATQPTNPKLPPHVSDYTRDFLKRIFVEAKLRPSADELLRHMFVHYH
From the text: as §1, §2

MERTK = biological target: T5, MERTK (Homo sapiens, UniProt Q12866); conditions: read-out: % Control; for remaining binding at 1 µM: 1000 nM
T5 construct: purchased DiscoverX scanMAX
T5 sequence (Q12866 21-999): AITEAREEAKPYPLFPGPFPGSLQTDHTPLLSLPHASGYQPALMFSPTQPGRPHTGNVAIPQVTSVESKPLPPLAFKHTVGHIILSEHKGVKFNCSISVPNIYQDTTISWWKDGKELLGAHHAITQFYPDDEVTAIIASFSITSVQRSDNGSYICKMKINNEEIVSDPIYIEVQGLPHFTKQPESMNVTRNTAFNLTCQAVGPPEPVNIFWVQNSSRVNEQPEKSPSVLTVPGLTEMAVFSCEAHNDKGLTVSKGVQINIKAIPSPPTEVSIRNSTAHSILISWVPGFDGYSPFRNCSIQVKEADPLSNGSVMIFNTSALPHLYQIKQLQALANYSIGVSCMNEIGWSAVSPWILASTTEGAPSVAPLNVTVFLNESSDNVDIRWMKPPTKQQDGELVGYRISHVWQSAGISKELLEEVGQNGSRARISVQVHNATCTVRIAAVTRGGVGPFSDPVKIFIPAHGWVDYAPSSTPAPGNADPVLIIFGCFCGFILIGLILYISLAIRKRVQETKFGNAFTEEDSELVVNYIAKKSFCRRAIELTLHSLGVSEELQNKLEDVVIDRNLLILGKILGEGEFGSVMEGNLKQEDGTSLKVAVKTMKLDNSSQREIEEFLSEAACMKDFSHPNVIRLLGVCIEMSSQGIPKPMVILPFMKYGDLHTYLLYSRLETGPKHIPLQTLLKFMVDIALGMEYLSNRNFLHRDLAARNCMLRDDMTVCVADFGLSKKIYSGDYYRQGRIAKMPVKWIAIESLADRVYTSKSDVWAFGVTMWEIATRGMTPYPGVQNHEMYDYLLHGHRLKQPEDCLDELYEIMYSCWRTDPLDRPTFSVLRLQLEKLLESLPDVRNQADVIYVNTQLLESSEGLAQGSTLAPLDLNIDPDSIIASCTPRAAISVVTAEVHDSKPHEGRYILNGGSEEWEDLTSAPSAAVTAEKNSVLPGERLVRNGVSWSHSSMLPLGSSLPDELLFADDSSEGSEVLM
From the text: as §1, §2

TRKB = biological target: T6, TRKB (Homo sapiens, UniProt Q16620); conditions: read-out: % Control; for remaining binding at 1 µM: 1000 nM
T6 construct: purchased DiscoverX (scanMAX panel)
From the text: as §1, §2

T1 sequence (Q9BQI3 whole entry): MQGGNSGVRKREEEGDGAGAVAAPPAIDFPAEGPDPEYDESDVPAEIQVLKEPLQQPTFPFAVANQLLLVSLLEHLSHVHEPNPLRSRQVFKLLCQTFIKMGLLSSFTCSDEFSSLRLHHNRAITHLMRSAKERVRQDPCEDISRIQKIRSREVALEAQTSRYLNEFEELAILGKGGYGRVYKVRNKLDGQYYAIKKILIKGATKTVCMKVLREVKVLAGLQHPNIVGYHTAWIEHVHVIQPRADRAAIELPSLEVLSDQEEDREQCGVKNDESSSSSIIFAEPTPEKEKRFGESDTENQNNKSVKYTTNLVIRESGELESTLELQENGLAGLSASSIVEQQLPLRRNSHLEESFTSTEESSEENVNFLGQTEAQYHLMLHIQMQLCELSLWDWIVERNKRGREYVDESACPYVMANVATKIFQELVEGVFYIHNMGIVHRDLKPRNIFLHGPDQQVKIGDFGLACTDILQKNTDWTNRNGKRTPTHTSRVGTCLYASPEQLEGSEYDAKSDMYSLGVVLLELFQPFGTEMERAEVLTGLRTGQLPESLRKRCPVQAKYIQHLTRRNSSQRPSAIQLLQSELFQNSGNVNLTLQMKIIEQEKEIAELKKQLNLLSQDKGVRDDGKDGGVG
T3 sequence (P10721 26-976 L576P): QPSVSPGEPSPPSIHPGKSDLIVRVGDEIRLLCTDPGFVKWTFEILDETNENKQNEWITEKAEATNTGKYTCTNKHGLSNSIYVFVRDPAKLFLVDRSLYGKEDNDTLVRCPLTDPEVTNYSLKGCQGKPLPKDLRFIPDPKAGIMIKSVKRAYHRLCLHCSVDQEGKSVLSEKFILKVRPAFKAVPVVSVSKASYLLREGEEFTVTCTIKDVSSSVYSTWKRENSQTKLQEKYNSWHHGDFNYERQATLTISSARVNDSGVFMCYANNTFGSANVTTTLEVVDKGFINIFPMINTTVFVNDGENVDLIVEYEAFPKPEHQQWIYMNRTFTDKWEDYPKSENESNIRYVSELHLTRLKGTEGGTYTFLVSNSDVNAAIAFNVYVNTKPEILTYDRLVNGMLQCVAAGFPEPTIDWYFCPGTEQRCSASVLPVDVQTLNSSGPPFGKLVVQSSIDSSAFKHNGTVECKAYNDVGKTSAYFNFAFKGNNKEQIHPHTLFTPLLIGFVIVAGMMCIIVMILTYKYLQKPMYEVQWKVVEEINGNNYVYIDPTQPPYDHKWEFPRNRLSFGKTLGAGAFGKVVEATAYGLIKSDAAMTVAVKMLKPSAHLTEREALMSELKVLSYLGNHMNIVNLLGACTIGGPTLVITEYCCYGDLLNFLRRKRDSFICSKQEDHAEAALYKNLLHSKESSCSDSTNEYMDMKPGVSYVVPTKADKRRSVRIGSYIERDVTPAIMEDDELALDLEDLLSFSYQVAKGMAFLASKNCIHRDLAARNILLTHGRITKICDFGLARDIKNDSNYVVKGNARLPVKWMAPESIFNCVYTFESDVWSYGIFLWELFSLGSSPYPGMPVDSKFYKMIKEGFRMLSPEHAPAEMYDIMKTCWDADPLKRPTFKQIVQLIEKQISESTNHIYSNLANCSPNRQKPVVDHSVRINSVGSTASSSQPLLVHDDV
T6 sequence (Q16620 32-822): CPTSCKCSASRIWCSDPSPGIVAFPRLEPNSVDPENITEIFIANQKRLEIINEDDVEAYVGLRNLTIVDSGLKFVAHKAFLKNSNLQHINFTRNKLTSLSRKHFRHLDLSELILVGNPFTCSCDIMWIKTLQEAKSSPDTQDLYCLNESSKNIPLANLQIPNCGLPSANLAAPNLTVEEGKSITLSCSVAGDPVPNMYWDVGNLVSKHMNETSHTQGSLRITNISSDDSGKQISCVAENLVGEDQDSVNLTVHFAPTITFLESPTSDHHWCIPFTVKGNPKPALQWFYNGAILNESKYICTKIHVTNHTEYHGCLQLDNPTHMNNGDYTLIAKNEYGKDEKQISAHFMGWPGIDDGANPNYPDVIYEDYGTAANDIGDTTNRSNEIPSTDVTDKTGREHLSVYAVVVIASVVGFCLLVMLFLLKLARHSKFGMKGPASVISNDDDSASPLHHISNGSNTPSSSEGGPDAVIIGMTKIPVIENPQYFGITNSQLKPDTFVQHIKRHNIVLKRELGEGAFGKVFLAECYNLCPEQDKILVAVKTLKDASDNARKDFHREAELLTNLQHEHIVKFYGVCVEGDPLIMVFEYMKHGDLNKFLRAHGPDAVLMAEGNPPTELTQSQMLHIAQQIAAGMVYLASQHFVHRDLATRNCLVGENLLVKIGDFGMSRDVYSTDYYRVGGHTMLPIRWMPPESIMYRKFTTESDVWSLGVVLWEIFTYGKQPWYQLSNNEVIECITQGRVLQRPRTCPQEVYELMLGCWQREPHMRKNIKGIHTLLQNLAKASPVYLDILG

Structure (SMILES)	remaining binding at 1 µM (EIF2AK1) [%]	% Control (FLT3(ITD); 1000 nM) [%]	% Control (FLT3(ITD,D835V); 1000 nM) [%]	remaining binding at 1 µM (FLT3(K663Q)) [%]	remaining binding at 1 µM (KIT(L576P)) [%]	remaining binding at 1 µM (MAP3K2) [%]	remaining binding at 1 µM (MERTK) [%]	remaining binding at 1 µM (TRKB) [%]	remaining binding at 0.1 µM (EIF2AK1; 100 nM) [%]	% Control (FLT3(ITD); 100 nM) [%]	% Control (FLT3(ITD,D835V); 100 nM) [%]	remaining binding at 0.1 µM (FLT3(K663Q); 100 nM) [%]	remaining binding at 0.1 µM (KIT(L576P); 100 nM) [%]	remaining binding at 0.1 µM (MAP3K2; 100 nM) [%]	remaining binding at 0.1 µM (MERTK; 100 nM) [%]	remaining binding at 0.1 µM (TRKB; 100 nM) [%]
Cc1nc(N)c2c(-c3ccc(NC(=O)[C@H](O)c4cccc(F)c4)cc3C)cn(C)c2n1 [Compound 24]	73	94	100	83	98	100	100	96	–	–	–	–	–	–	–	–
Cc1cc(NC(=O)[C@H](O)c2cccc(F)c2)ccc1-c1cn(C)c2ncnc(N)c12 [Compound 11, (R)-N-(4-(4-amino-7-methyl-7H-pyrrolo[2,3-d]pyrimidin-5-yl)-3-methylphenyl)-2-(3-fluorophenyl)-2-hydroxy acetamide]	49	34	89	26	36	14	65	22	–	–	–	–	–	–	–	–
Cc1nc(N)c2c(-c3ccc(NC(=O)[C@H](O)c4cccc(C(F)(F)F)c4)cc3C)cn(C)c2n1 [Compound 26]	78	9.4	75	20	2.6	89	29	18	89	95	100	51	85	100	94	92
